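These data come from cells grown in 96-well plates and exposed to compound for 48 hours at five concentrations. GI50 marks 50% less growth. The concentration for full growth arrest is given as TGI.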
Experiments:
Assay in all cases: inhibition of tumour cell growth, NCI panel, 48 h
[1] = system: CCRF-CEM leukemia
[2] = system: MCF7 breast
[3] = system: MOLT-4 leukemia
[4] = system: PC-3 prostate
[5] = system: SF-539 CNS
[6] = system: SK-OV-3 ovarian
[7] = system: SNB-75 CNS
[8] = system: TK-10 renal
[9] = system: KM12 colon
[10] = system: M14 melanoma

Row | Compound | GI50 [1] | GI50 [2] | TGI [2] | GI50 [3] | TGI [3] | GI50 [4] | TGI [4] | GI50 [5] | TGI [5] | GI50 [6] | TGI [6] | GI50 [7] | TGI [7] | GI50 [8] | TGI [8] | TGI [1] | TGI [9] | TGI [10] | GI50 [9] | GI50 [10]
1 | O=C1c2ccccc2-c2nccc3cc(Cl)nc1c23 | 1.06 µM | 1.3 µM | 2.72 µM | 2.21 µM | > 26.8 µM | 2.96 µM | > 100 µM | 4.88 µM | 24.7 µM | 35.9 µM | > 100 µM | 1.93 µM | 9.56 µM | 4.33 µM | > 100 µM |  |  |  |  | 
2 | O=C(O)CNS(=O)(=O)c1ccc(NC(=O)c2ccc(F)cc2)cc1 |  |  |  |  | > 100 µM |  |  |  | > 100 µM |  | > 100 µM |  | > 100 µM |  | > 100 µM | > 100 µM | > 100 µM | > 100 µM |  | 
3 | CC(C)COC(=O)N1N=NC2C3OC(CC3=O)C21 (configuration not stated) |  |  |  |  | > 100 µM |  |  |  | > 100 µM |  | > 100 µM |  | > 100 µM |  | > 100 µM | > 100 µM | > 100 µM | > 100 µM |  | 
4 | CCN(CC)c1ccc(N=C2C=CC(=O)c3ncccc32)c(C)c1 |  |  |  |  | 6.14 µM |  |  |  | 19.4 µM |  | 34.3 µM |  | 28.9 µM |  | 29.8 µM | 14.6 µM | 27.1 µM | 13.4 µM |  | 
5 | CSc1ccc(-c2cc(-c3ccc(NC(=O)CCCN4CCCC4)cc3)nc(-c3ccc(NC(=O)CCCN4CCCC4)cc3)c2)cc1 | 1.9 µM |  |  | 1.79 µM | 3.62 µM | 1.8 µM | 3.4 µM | 2.52 µM | 7.54 µM | 2.97 µM | 8.74 µM | 1.64 µM | 4.99 µM | 4.56 µM | 17.5 µM | 3.61 µM | 3.3 µM | 17.4 µM | 1.87 µM | 4.23 µM
6 | NC(N)=N/N=C/c1c(-c2cccs2)nc2sccn12 | 1.61 µM |  |  | 8.48 µM | 36.3 µM | 11.1 µM | 23.1 µM | 12.4 µM | 25.5 µM | 13 µM | 25.7 µM | 5.66 µM | 17.1 µM |  |  | 27.1 µM | 20.7 µM | 30.2 µM | 8.24 µM | 16.6 µM
7 | CS(=O)(=O)OCCN1CCN(C(=O)c2cccc3c(Nc4ccc(S(N)(=O)=O)cc4)c4ccccc4nc23)CC1 |  |  |  |  | > 100 µM |  |  |  | > 100 µM |  | > 100 µM |  | > 100 µM |  | > 100 µM | > 63 µM | > 100 µM | > 100 µM |  | 
8 | Cc1cc2c(cc1C)[n+](=O)c(C(=O)/C=C/c1ccc(Cl)cc1)c(C)n2[O-] |  |  |  |  | 73.5 µM |  |  |  | 47.3 µM |  | > 100 µM |  | 45.5 µM |  | 58.5 µM | > 100 µM | > 100 µM | 54.1 µM |  | 
9 | ON(CCc1ccncc1)Cc1ccccc1 |  |  | > 100 µM |  | > 100 µM |  |  |  | > 100 µM |  | > 100 µM |  | > 100 µM |  |  |  | > 100 µM | > 100 µM |  | 
10 | COc1ccc(Nc2ncccc2/C=C/C(=O)c2cc(OC)c(OC)c(OC)c2)cc1 | 0.5 µM | 0.695 µM | 2.09 µM | 2.09 µM | 5.45 µM | 2.82 µM | 8.71 µM | 2.04 µM | 5.15 µM | 2.72 µM | 8.56 µM | 1.15 µM | 2.37 µM |  |  | > 100 µM | 3.22 µM | 3.16 µM | 1.69 µM | 1.65 µM
11 | O=C(Cn1c(=O)c(-c2ccccc2)nc2ccccc21)c1cccnc1 | > 100 µM | > 100 µM | > 100 µM | > 100 µM | > 100 µM | > 100 µM | > 100 µM |  |  | > 100 µM | > 100 µM |  |  | > 100 µM | > 100 µM | > 100 µM | > 100 µM | > 100 µM | > 100 µM | > 100 µM
12 | Cn1cc(NC(=O)c2cc(NC(=O)Nc3cc(C(=O)Nc4cc(C(=O)NCCC(=N)N)n(C)c4)n(C)c3)cn2C)cc1C(=O)NCCC(=N)N |  |  |  |  | > 100 µM |  |  |  | 35.2 µM |  | > 100 µM |  | 67.2 µM |  | 54.7 µM | 77 µM | 36.8 µM | 57.2 µM |  | 
13 | N=S(=O)(c1ccccc1)c1ccccc1[N+](=O)[O-] (configuration not stated) |  |  |  |  | > 100 µM |  |  |  | > 100 µM |  | > 100 µM |  | > 100 µM |  | > 100 µM | > 100 µM | > 100 µM | > 100 µM |  | 
14 | CCCCCCCCCCCCCC[P+](CCCCCC)(CCCCCC)CCCCCC |  | 0.146 µM | 1.3 µM | 0.0689 µM | 0.952 µM | 0.03 µM | 0.125 µM | 0.202 µM | 1.72 µM | 0.2 µM |  | 0.125 µM |  | 0.198 µM | 1.92 µM |  | 0.375 µM | 2.91 µM | 0.0397 µM | 0.0521 µM
15 | O=C(Nc1c(Cl)cc([N+](=O)[O-])cc1Cl)C(=O)C1C(=O)NC(=S)NC1=O |  |  | > 100 µM |  |  |  | > 100 µM |  | > 100 µM |  | > 100 µM |  | > 100 µM |  | > 100 µM | > 100 µM | > 100 µM | > 100 µM |  | 
16 | CCN(CC)CC(=O)/C=C/c1ccc(C)cc1 |  |  |  |  | > 100 µM |  |  |  | 37 µM |  | 82.5 µM |  | 55.1 µM |  | 74.8 µM |  | 39 µM | 32.2 µM |  | 
17 | CCNc1c(C(=O)N(CC)CC)c(=O)[nH]c2ncccc12 |  |  |  |  | > 100 µM |  |  |  | > 100 µM |  | > 100 µM |  | > 100 µM |  | > 100 µM | > 100 µM | > 100 µM | > 100 µM |  | 
18 | CC(=N\O)/C(C)=N/O.CC(=N\O)/C(C)=N/O.CC(=N\O)/C(C)=N/O.CC(=N\O)/C(C)=N/O.[Cu].[Cu] |  | 17.3 µM | 31.2 µM | 19.9 µM | 47.4 µM | 16.7 µM | 30.3 µM | 20.8 µM | 37.2 µM | 18.6 µM | 34.5 µM | 17.1 µM | 31.8 µM | 19.1 µM | 33.2 µM |  | 36.4 µM | 34.7 µM | 20.6 µM | 18.9 µM
19 | O=C1CCC2CCc3cccc4oc1c2c34 (configuration not stated) |  |  |  |  | > 100 µM |  |  |  | > 100 µM |  | > 100 µM |  | > 100 µM |  | > 100 µM | > 100 µM |  | > 100 µM |  | 
20 | CCOC(=O)C(=O)C1C(=O)Nc2ccccc21 (configuration not stated) |  |  |  |  | > 100 µM |  |  |  |  |  |  |  | > 100 µM |  | > 100 µM | > 100 µM | > 100 µM | > 100 µM |  | 
